Test results: patent EP1129187B1, “NEW FAMILY OF MAMMALIAN POTASSIUM CHANNELS, THEIR CLONING AND THEIR USE, ESPECIALLY FOR THE SCREENING OF DRUGS” (CENTRE NATIONAL DE LA RECHERCHE SCIENTIFIQUE (CNRS), priority 1998, dated 2000)

What was measured:
Assay type in all cases: cell-based
[1] = target: T1, human TWIK-1 K+ channel, SEQ ID NO: 2 (Homo sapiens, UniProt O00180); assay: TWIK-1 K+ currents, two-electrode voltage clamp in Xenopus oocytes injected with TWIK-1 cRNA; conditions: 30 nM, activation of protein kinase C
T1 construct: expressed in transfected cells; host or cells: Xenopus laevis oocytes injected with cRNA transcribed from pEXO-TWIK-1
T1 sequence (O00180 1-336): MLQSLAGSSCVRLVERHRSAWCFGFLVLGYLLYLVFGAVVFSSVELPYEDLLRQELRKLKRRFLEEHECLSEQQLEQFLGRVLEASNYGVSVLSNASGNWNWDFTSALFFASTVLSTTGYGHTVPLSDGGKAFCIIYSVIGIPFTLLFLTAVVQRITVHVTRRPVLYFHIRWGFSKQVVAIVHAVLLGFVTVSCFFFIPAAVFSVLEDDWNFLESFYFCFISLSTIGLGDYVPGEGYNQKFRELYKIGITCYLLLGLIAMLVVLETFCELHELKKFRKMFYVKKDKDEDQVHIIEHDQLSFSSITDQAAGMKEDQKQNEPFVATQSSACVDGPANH
Procedure: For the functional study, the coding sequence of TWIK-1 was inserted between the noncoding sequences 5' and 3' of Xenopus globin in the vector pEXO (Lingueglia, E. et al., 1993, J. Biol. Chem., 269, 13736-13739). A complementary RNA (cRNA) was transcribed of this construction and injected in the oocytes of X laevis. In a 0.3ml perfusion chamber, a single oocyte was impaled on two standard glass microelectrodes (0.5 - 2.0 MW) charged with 3 M KCI and maintained under voltage-clamp with a Dagan TEV200 amplifier. The bath solution contained 98 mM KCl,1.8 raM CaCl2 […] and 5 mM HEPES at pH 7.4 with KOH. Stimulation of the preparation, data acquisition and analyses were carried out with the pClamp program (Axon Instruments) USA3.
Intracellular acidification of the oocytes was produced using two methods: • superfusion with a solution enriched in CO2 which produces acidification by a mechanism involving the bicarbonate transport system (Guillemare, E. et al., 1995, Mol. Pharmacol., 47, 588-594); • treatment with dinitrophenol (DNP), which is a metabolic inhibitor that decouples the H+ gradient in mitochondria and induces internal acidity (Pedersen, P. L. and Carafoli, E., 1997, Trends Biol. Sci., 12, 146-189).
(§1) Phosphorylation or dephosphorylation of specific amino acid residues is an important mechanism of regulation of the ionic channels (Levitan, I. B., 1994, Annul Rev. Physiol., 56, 193-212).

[2] = tested on: human TWIK-1 K+ channel, mutation of the threonine 161 into alanine; assay: Currents of mutated TWIK-1 channel in Xenopus oocytes; conditions: mutant Thr161 to Ala
Procedure: The TWIK-1 coding sequence was amplified using a low-error rate DNA polymerase (Pwo DNA pal, Boehringer) and subcloned in the plasmid pEXO so as to yield pEXO-TWIK-1. Mutations were performed using the whole plasmid pEXO-TWIK-1 with a highly reliable PCR extension kit (Boehringer) and two adjacent primers. One of these introduced a punctiform mutation in the IINIK-1 coding sequence, changing the 161 Thr codon into a codon for alanine. The product of the PCR was linearized by the enzyme BamHI and the cRNA were synthesized using a T7 RNA polymerase (Stratagene). Preparation of the X. larvis oocytes and cRNA injection were carried out in accordance with the literature (Guillemare, E. et al., 1992, Biochemistry. 31, 1246312468,
as §1

[3] = target: human TASK1 K+ channel, SEQ ID NO: 4 (Homo sapiens, UniProt O14649); assay: TASK1 currents elicited by voltage pulses to +50 mV, two-electrode voltage clamp in Xenopus oocytes; conditions: 40 nM, activation of protein kinase C
human TASK1 K+ channel, SEQ ID NO: 4, sequence (O14649 whole entry, the tested form may be a part): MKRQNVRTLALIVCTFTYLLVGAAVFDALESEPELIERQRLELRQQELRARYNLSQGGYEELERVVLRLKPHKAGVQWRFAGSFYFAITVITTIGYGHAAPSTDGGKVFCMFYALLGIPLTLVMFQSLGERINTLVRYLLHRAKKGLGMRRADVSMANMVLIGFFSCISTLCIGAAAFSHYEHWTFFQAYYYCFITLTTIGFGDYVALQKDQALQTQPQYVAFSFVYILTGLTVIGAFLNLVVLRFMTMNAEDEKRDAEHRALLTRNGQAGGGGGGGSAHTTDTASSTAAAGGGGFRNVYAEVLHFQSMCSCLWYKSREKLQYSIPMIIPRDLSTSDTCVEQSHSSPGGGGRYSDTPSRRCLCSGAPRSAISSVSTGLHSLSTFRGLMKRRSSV
Procedure: For functional studies, TASK1 cRNAs were injected into Xenopus oocytes. This was accomplished by subcloning a 2480 bp SmaI/XhoI fragment from pBS-hT ASK containing 14 bp of 5' UTR, the coding sequence and the entire 3' UTR into the pEXO vector (Lingueglia et al., 1993) to give pEXO-TASK1. Capped-cRNAs were synthesised in vitro from the linearized plasmid by using the T7 RNA polymerase (Stratagene). Xenopus laevis were purchased from CRBM (Montpellier, France). Preparation and cRNA injection of oocytes has been described elsewhere (Guillemare et al., 1992). Oocytes were used for electrophysiological studies 2 to 4 days following injection (20 ng/oocyte). In a 0.3 ml perfusion chamber, a single oocyte was impaled with two standard microelectrodes (1-2.5 Mn resistance) filled with 3 M KCI and maintained under voltage clamp by using a Dagan TEV 200 amplifier, in standard ND96 solution (96 mM NaC1. 2 mM KCI, 1.8 mM CaCI2, 2 mM MgCl2, 5 mM HEPES, pH 7.4 with NaOH). In some experiments, NaCl was substituted with TMA Cl (Tetra Methyl Ammonium Chloride). Stimulation of the preparation, data acquisition, and analysis were performed using pClamp software (Axon instruments, USA). Drugs were applied externally by addition to the superfusate (flow rate: 3 ml/min) or intracellularly injected by using a pressure microinjector (Inject+Matic, Switzedand). All experiments were performed at room temperature (21-22 °C).
Figure 12A presents the I-V relationships of the current in K^+-rich solutions ranging from 2 mM to 98 mM. […] The theoretical I-V relationships in various [K^+]out calculated according to the Goldman-Hodgkin-Katz current equation are shown in Figure 12D. […] The effect of various pharmacological agents on currents elicited by voltage pulses to +50 mV has been studied in TASK1-expressing oocytes.

[4] = target: T2, human TASK-2 K+ channel, SEQ ID NO: 28 (Homo sapiens, UniProt O95279); assay: TASK-2 currents elicited by voltage pulses to +50 mV, whole cell recording in transfected COS cells; conditions: 70 nM, activation of PKC
T2 construct: expressed in transfected cells; host or cells: COS cells transiently transfected with pIREScd8-TASK-2 (DEAE-dextran)
T2 sequence (O95279 1-499): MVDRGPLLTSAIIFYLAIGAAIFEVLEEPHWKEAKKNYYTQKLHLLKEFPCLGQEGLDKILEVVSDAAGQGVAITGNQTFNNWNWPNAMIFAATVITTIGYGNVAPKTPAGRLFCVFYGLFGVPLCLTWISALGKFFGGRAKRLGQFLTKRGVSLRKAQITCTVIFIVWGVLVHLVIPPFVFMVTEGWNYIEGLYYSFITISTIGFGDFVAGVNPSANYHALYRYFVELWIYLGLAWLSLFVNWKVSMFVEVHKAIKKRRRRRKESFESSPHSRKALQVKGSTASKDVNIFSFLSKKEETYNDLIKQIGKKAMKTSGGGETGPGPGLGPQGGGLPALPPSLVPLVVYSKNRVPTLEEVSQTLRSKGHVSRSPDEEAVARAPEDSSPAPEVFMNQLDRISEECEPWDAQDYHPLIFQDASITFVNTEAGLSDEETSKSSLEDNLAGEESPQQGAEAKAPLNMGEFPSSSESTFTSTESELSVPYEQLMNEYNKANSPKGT
Procedure: For patch clamp analyses, a NotI/EcoRI fragment of 3.2 kb was excised from pBS-TASK 2 and subcloned into the pIRES-CD8 vectorto givepIREScdB-TASK-2. ThepIRES-CD8 vector was obtained by replacing the neo^R gene in the original vector pIRESneo (Clontech) by the coding sequence of the T type lymphocyte's surface marker CD8. COS cells were seeded at a density of 20,000 cells per 35 mm dishes 24 h prior to transfection. Cells were then transiently transfected by the classical DEAE-dextian method with 1 µg of prREScdB-TASK-2 plasmid per 35 mm dish. Transiently-transfected cells were visualized 48 h after transfection using the anti-CD8 antibody coated beads method (24). For whole cell recordings, the internal solution contained 150 mM KCI, 3 mM MgCl2, 5 mM EGTA, and 10 mM HEPES at pH 7.2 with KOH, and he external solution 150 mM NaCl, 5 mM KCI, 3 mM MgCl2 1 mM CaCl2, 10 mM HEPES at pH 7.4 with NaOH.
The effects of various pharmacological agents on currents elicited by voltage pulses to +50 mV have been studied in TASK-2-exprcssing. COS cells.

**Q.** Which results are given for CCCCCCCCCCCCCC(=O)O[C@@H]1[C@@H](C)[C@@]2(O)[C@@H](C=C(CO)C[C@]3(O)C(=O)C(C)=C[C@@H]23)[C@@H]2C(C)(C)[C@]12OC(C)=O [PMA, phorbol-12 myristate acetate]?
**A.** effect on TWIK-1 currents [1]: increases; activation by PMA [2]: conserves the capacity to be activated; sensitivity of TASK1 currents [3]: insensitive; sensitivity of TASK-2 currents [4]: insensitive
